Data reported in patent US20190359653A1, “SELECTIVE PEPTIDE INHIBITORS OF FRIZZLED” (Genentech, Inc., priority 2016, published 2019).

Key:
[1] = test system: organoids derived from Lgr5-GFP mice; assay: flow cytometry of Lgr5-GFP stem cells in organoids; type: cell-based, mouse; settings: compared to control DMSO; FIGS. 41A-41C
Procedure: The pharmacological effect of dFz7-21 was further investigated by conducting RNA sequencing on intestinal organoid samples that were treated with dFz7-21 for 6 and 24 h. […] Concurrently, there was also an up-regulation of enterocyte markers (pro-differentiation) in the dFz7-21 treated organoids. Among the most down regulated genes upon dFz7-21 treatment were Lgr5, Olfm4 and Asc12. […] Finally, to assess the effect of dFz7-21 directly on stem cells, the presence of GFP+ stem cells in organoids derived from Lgr5-GFP mice was monitored as described in Tian, H. et al. “A reserve stem cell population in small intestine renders Lgr5-positive cells dispensable.” Nature 478, 255-259 (2011). Treatment with dFz7-21 reduced the number of Lgr5-GFP stem cells compared to control DMSO as assayed by flow cytometry (see FIGS. 41A-41C) and confocal microscopy (data not shown). In FIGS. 41A and 41B, Lgr5-GFP organoids were dissociated, treated with SYTOX and analyzed by flow cytometry.

[2] = test system: Wnt3a-stimulated β-catenin signaling in HEK293-TB cells; assay: luciferase reporter assay, HEK293-TB cells transfected with pCDNA3.2-Wnt3a; type: cell-based
[3] = test system: Wnt1-stimulated β-catenin signaling in HEK293-TB cells; assay: luciferase reporter assay, HEK293-TB cells transfected with pCDNA3.2-Wnt1; type: cell-based
hFZD7 CRD-His = target: T1, hFZD7 CRD-His (Homo sapiens, UniProt O75084); assay: SEC-MALS of hFZD7 CRD-His incubated with peptide; type: binding
T1 construct: hFZD7 CRD-His [Gln33-Gly168] was expressed as a secreted protein in Trichoplusia ni cells expressing EndoH; made in house; host or cells: Trichoplusia ni cells expressing EndoH, treated with Kifunensine (baculovirus)
Procedure: Samples were resolved by a Superdex S200 3.2/300 column (General Electric Healthcare Life Science, Pittsburgh, Pa.; cat. no. 28990946) at 0.15 mL/min in 150 mM NaCl, 50 mM Tris-HCl pH 7.5 buffer with 1% DMSO final concentration. Runs were performed on a 1260 infinity HPLC (Agilent Technology, Santa Clara, Calif.) connected to a Dawn Heleos-II multi-angle static Light Scattering (MALS) detector and a Optilab T-rEX differential Refractive Index (dRI) detector (Wyatt Technologies, Santa Barbara, Calif.).
Samples were resolved by a Superdex S200 3.2/300 column (General Electric Healthcare Life Science, Pittsburgh, Pa.; 28990946) at a 0.15 mL/min in 150 mM NaCl, 50 mM Tris-HCl pH 7.5 buffer with 1% DMSO final concentration. Column was connected to a 1260 infinity HPLC (Agilent Technology, Santa Clara, Calif.) connected to a Dawn Heleos-II Multi-Angle static Light Scattering (MALS) detector and the Optilab T-rEX differential Refractive Index (dRI) detectors (Wyatt Technologies, Santa Barbara, Calif.).

[4] = test system: Wnt3a binding to FZD1 CRD, FZD2 CRD, and FZD7 CRD; assay: ELISA of biotinylated Wnt3a binding to FZD CRD-Fc; settings: peptide 0-10 μM
Procedure: (§1) 384-well Maxisorp plates (cat. no. 464718; Thermo Scientific) were incubated with 30 μL of Neutravidin (cat. no. 31000, Thermo Scientific; 2 μg/mL in PBS) overnight at 4° C. Plates were then washed with PBST and blocked with PBS/1% BSA for 1 hour at RT and then washed with PBST prior to further processing. The binding assay was conducted in 96 well plates (cat no. 83007-374; VWR) which were blocked with PBS/1% BSA overnight at 4° C. hFZD4 CRD-Fc or hFZD7 CRD-Fc (63 ng/mL) were incubated with either Bio-Wnt3a (25 ng/mL) or Bio-Wnt5a (50 ng/mL) in the presence of 4-fold serial dilutions of the indicated peptide in PBS overnight at 4° C. All assays included hFZD9 CRD-mIgG2A protein as a negative control. hFZD7 CRD-His was suspended in 150 mM NaCl, 50 mM Tris-HCl at pH 7.5 and when used in assays an equal volume of the same buffer control was used. The binding assay mixtures were transferred to the Neutravidin coated plates and incubated for ˜1 h at RT. The wells were then washed with PBST, incubated with anti-hIgG1-HRP (1:10,000 suspended in PBS supplemented with 1% BSA; cat. no. A18817, Invitrogen), and washed again with PBST. The signal was developed with the addition of TMB reagent (following the manufacturer's recommendation; KPL; 50-76-00) for 15 min prior to the addition of an equal volume of 1 M phosphoric acid for 10 min Absorbance was measured at 450 nm using a Tekan M1000 plate reader. Values were collected and plotted using Prism Graphpad software. All assay conditions using peptides were at 1% DMSO final concentration.
Without being bound be theory, the substantial conformational change induced by dFz7-21 on hFZD7 CRD, as exemplified by the altered geometry of the lipid binding cavity, may facilitate the accommodation of two Wnt molecules simultaneously onto the hFZD7 CRD dimer (FIG. 4e-h).
Similar results were observed using Wnt3a. […] Binding of Wnt3a to FZD1 CRD, FZD2 CRD, and FZD7 CRD increased in the presence of dFz7-21 at concentrations below about 0.5 μM (FIG. 22E), with the most binding seen in the presence of 0.01 μM-0.05 μM dFz7-21. […] Fz7-21S had no effect on Binding of Wnt3a to any of the FZD CRDs tested (FIG. 22F).

[5] = target: T2, Wnt5a binding to FZD7 CRD (Homo sapiens, UniProt O75084); assay: ELISA of Wnt5a binding to FZD7 CRD, Fz7-21-derived peptide dimers; settings: FIGS. 23A-23J
T2 construct: hFZD7 CRD-Fc (cat no. 6178-FZ); purchased R&D systems 6178-FZ
Procedure: as §1, with “The wells were then washed with PBST, incubated with anti-hIgG1-HRP (1:10,000 suspended in PBS supplemented with 1% BSA; cat. no. A18817, Invitrogen), and washed again with PBST.” left out, “Values were collected and plotted using Prism Graphpad software. All assay conditions using peptides were at 1% DMSO final concentration.” left out

Sequence	number of Lgr5-GFP stem cells [1]	inhibition of Wnt3a signaling [2]	inhibition of Wnt1 signaling [3]	ΔMW (kDa) (hFZD7 CRD-His; 1:10, relative to the DMSO control)	MW (kDa) (hFZD7 CRD-His; protein:peptide 1:10)	effect on Wnt3a binding to FZD1, FZD2 and FZD7 CRD [4]	effect on recruitment of Wnt5a to FZD7 CRD [5]
LPSDDLEFWCHVMY [dFz7-21]	reduced	–	–	–	–	–	–
LPSDDLEFWSHVMY [Fz7-21S, negative control]	–	not found to inhibit	not found to inhibit	2.6 kDa	23.5 kDa	showed no effect	no effect
